Like-named read-outs stand apart in the source and are kept apart here. Blank lines part the entries; values can stand above or below the compound they belong to.
How the values were obtained:
[1] = Pharmacokinetic analysis and oral bioavailability in rats; type: in vivo, male Spagrue-Dawley rats; details: rat; for AUC: estimated for infinity; for half-life: read-out: Elim Half-Life (converted)
Procedure: A PK study was done in rats to determine the PK profile and oral bioavailability of methotrexate and compared this to the orotate salt of methotrexate. This was done in male Spagrue-Dawley rats. This compound was administered intravenously (IV; 10 mg/kg; for methotrexate and 15.7 mg/kg for methotrexate orotate 1 mL/kg; vehicle 1% NaHCO3 in 0.9% saline) or via oral gavage (PO; 100 mg/kg methotrexate; 157 mg/kg methotrexate orotate; vehicle 1% NaHCO3 in 0.9% saline) and the plasma levels of compound in the plasma were determined at specified times. By calculating the ratio of the area under the curve for the compound concentrations (estimated for infinity as is typically done) for PO vs IV, percent oral bioavailability can be determined. Of course normalization for the different doses given IV vs PO was taken into account for determination of oral bioavailability.

[2] = tested on: DU-145 human prostate tumor xenografts
Procedure: The purpose of the experiment was to evaluate the antitumor efficacy of methotrexate (MTX) and its orotate derivative (MTX orotate) against subcutaneously (SC) implanted DU=145 human prostate tumor xenografts in male athymic NCr-nu/nu mice.
Drug formulation—2.7 mg/mL solution of MTX (Sigma-Aldrich, catalog no. M9929, lot no. 114K1572 used on days 15 and 19, and catalog no. A6770, lot no. 21H0324 used on days 19, 23 and 35) was formulated fresh on each day of treatment in 2% sodium bicarbonate in water for injection (WFI). The 2.7 mg/mL solution was diluted with sodium bicarbonate in WFI to 1.8 and 1.2 mg/mL.
A 4.25 mg/mL solution of MTX orotate was formulated fresh on each day of treatment in 2% bicarbonate in WFI to 2.83 and 1.89 mg/mL. Control group was treated with 2% sodium bicarbonate in WFI. Both compounds and the vehicle were administered to mice by exact individual animal's body weight on each day of treatment with the injection volume being 0.1 mL/10 g of body weight.
Seven groups of 10 mice per group were injected intraperitoneally (ip) once every four days for a total of 3 injections (q4d×3, Days 15, 19, 23 and 35) as follows: Group 1—2% sodium bicarbonate, Groups 2, 3 and 4 with MTX at 27, 18, and 12 mg/kg/dose, respectively. Groups 5, 6, and 7 were treated with MTX orotate at dosages 42.5, 28.3 and 18.9 mg/kg/dose respectively (based on MW of MTX=454.4 and MW of MTX orotate=714.7).
Tumors were measured and volume determined using formula L×W^2/2=mm^3; and weight calculated assuming 1 mm^3=1 mg. The study was terminated 47 days after tumor implantation

[3] = in vivo; cited from earlier work
[4] = IV, 15.7 mg/kg methotrexate orotate
[5] = PO, 157 mg/kg methotrexate orotate
[6] = male, Sprague-Dawley, plasma, IV, 10 mg/kg methotrexate
[7] = male, Sprague-Dawley, plasma, PO, 100 mg/kg methotrexate

Apparent volume of distribution and plasma clearance rate relative to methotrexate ([1]; IV): higher
Area under the curve (AUC) relative to methotrexate ([1]; IV): slightly lower
Cl [1, 4]: 263.08 ± 17.08 mL/min/kg
Cmax plasma [1, 4]: 2843 ± 121 ng/mL
Elim Half-Life [1, 4]: 0.47 ± 0.00 h
Tmax [1, 4]: 6 ± 0 min
Vd [1, 4]: 10804 ± 733 mL/kg
AUC [1, 4]: 792 ± 62 ng·mL·h
Elimination half-life relative to methotrexate ([1]; PO): shorter
Rate of getting into the plasma relative to methotrexate ([1]; PO): somewhat slower
% bioavailability (oral) ([1]; PO 157 mg/kg vs IV 15.7 mg/kg methotrexate orotate, dose-normalized AUC ratio): 14%
Cl [1, 5]: 3233.05 ± 518.18 mL/min/kg
Cmax plasma [1, 5]: 59 ± 20 ng/mL
Elim Half-Life [1, 5]: 17.7 ± 8.0 h
Tmax [1, 5]: 96 ± 24 min
Vd [1, 5]: 3345180 ± 472947 mL/kg
AUC [1, 5]: 1140 ± 390 ng·mL·h
Compound: CN(Cc1cnc2nc(N)nc(N)c2n1)c1ccc(C(=O)NC(CCC(=O)O)C(=O)[O-])cc1.O=C(O)c1cc(=O)[nH]c(=O)[nH]1.[Na+] (stereo not drawn) [Methotrexate Orotate, sodium methotrexate orotate]
Tumor weight - inhibition of growth of DU-145 xenografts ([2]; MTX orotate highest dose (42.5 mg/kg/dose) ip q4d): marginal inhibition
Tumor weight - tumor inhibition ([2]; MTX orotate two low doses (28.3 and 18.9 mg/kg/dose) ip q4d, SC DU-145 xenografts): no effect
Tumor growth compared with MTX ([2]; ip, equivalent dosages, SC DU-145 xenografts): no significant difference

Cmax [1, 6]: 3780 ± 636 ng/mL
clearance [1, 6]: 157 mL/min/kg
half-life [1, 6]: 26.4 ± 0.6 min
Tmax ([1]; male, Sprague-Dawley, plasma, IV, 10 mg/kg methotrexate, read-out: Tmax): 6 min
Vd ([1]; male, Sprague-Dawley, plasma, IV, 10 mg/kg methotrexate, read-out: Vd): 6120 ± 671 mL/kg
bioavailability ([1]; male, Sprague-Dawley, plasma, PO 100 mg/kg vs IV 10 mg/kg methotrexate, dose-normalized AUC ratio): 6%
Cmax [1, 7]: 51 ± 12 ng/mL
half-life [1, 7]: 1880 ± 924 min
Tmax ([1]; male, Sprague-Dawley, plasma, PO, 100 mg/kg methotrexate, read-out: Tmax): 54 ± 36 min
AUC ([1]; IV, 10 mg/kg methotrexate): 1151 ± 142 ng·mL·h
Cl ([1]; PO, 100 mg/kg methotrexate): 2537.12 ± 257.27 mL/min/kg
Vd ([1]; PO, 100 mg/kg methotrexate): 6811662 ± 3415946 mL/kg
AUC ([1]; PO, 100 mg/kg methotrexate): 671 ± 70 ng·mL·h
Compound: CN(Cc1cnc2nc(N)nc(N)c2n1)c1ccc(C(=O)N[C@@H](CCC(=O)O)C(=O)O)cc1 [Methotrexate, methotrexate]
Tumor weight - tumor inhibition ([2]; MTX 27, 18 and 12 mg/kg/dose ip q4d, SC DU-145 xenografts): no effect
Bound to plasma proteins [3]: approximately 50%
Elimination from plasma, gamma half life [3]: 27 h

From US7601834B2, “Compositions and methods of reducing side effects and toxicity of methotrexate when given as orotate derivatives” (SavviPharm Inc, priority 2005, dated 2009)
